The subject of data set [1] is Ebola virus replication (trVLP). Kind of data set: microbe, parasite or virus in culture. To be noted: for inhibition at 10 µM / IC50: Zaire ebolavirus, HEK-293T; for inhibition at 10 µM: read-out: Inhibition at 10µM (percent inhibition of trVLP replication); for IC50: read-out: IC50 to inhibit Ebola virus (trVLP) replication. In kind it is cell-based, Ebola Zaire.
A further data set is described as follows: in vitro. To be noted: human, Viability at 10µM (MTT viability).
Another data set relates to HEK-293T cells. To be noted: for Viability at 10µM (MTT viability): human.
The test system of another data set is Leishmania spp. To be noted: cited from earlier work.
The subject of the next data set is Ebola virus. To be noted: cited from earlier work.
Another data set deals with Plasmodium. The following applies: cited from earlier work.
For another data set, the system named is Ebola virus disease. The following applies: mouse, in vivo; cited from earlier work.

Structures can show the parent of a compound that is named as a salt.

As for `N#C/C=C/c1ccc2ccccc2n1` [2CNQ], the inhibition at 10 µM in data set [1] was 3.07 ± 8.34%. Further, the viability at 10 µM in “in vitro” turned out to be 88 ± 3.63%.
As to `O=C(O)/C=C/c1ccc2ccccc2n1` [2COOHQ], the “toxicity / cell viability (in words)” value in the data set with HEK-293T cells is reported as “good cell viability”. In addition, in data set [1], the “inhibitory activity in trVLP assay (in words)” value (shortened to “inhibitory activity”) is listed as “strongly reduced the antiviral inhibition” and the inhibition at 10 µM amounted to 30.6 ± 6.15%. Besides, in the data set “in vitro”, the viability at 10 µM was 88.5 ± 1.54%.
For `NC/C=C/c1ccc2ccccc2n1` [2NH2Q], the “Viability at 10µM (MTT viability)” value with HEK-293T cells amounted to 81.10± 2.09%. Besides, in data set [1], the “inhibitory activity” value is reported as “having inhibitory activity”, the “Inhibition at 10µM (percent inhibition of trVLP replication)” value came to 89.74± 6.53%, the IC50 was determined as 4.66 µM and the inhibition at 10 µM was 89%. Besides, the viability at 10 µM in “in vitro” turned out to be 81%.
`OC/C=C/c1ccc2ccccc2n1` [2OHQ]: in the data set with Leishmania spp., the “activity against Leishmania” value is “in vitro and in vivo activities”. In addition, the “Viability at 10µM (MTT viability)” value in the data set with HEK-293T cells is 31.15± 1.27%. Besides, in data set [1], the “inhibitory activity” value is listed as “having inhibitory activity”, the “Inhibition at 10µM (percent inhibition of trVLP replication)” value is recorded as 89.69± 4.09% and the inhibition at 10 µM is 89%. The viability at 10 µM in “in vitro” is 31%.
In the case of `CCCc1ccc2ccccc2n1` [2PQSel], in the data set with Leishmania spp., the “activity against Leishmania” value was “in vitro and in vivo activities”; the antileishmanial activity result was “antileishmanial activity”. In data set [1], the inhibition at 10 µM turned out to be 10.8 ± 32.4%. For the same molecule, the viability at 10 µM in the data set “in vitro” is 97.6 ± 2.06%.
As for `CCCCCc1ccc2ccccc2n1` [2PentQ], in the data set with HEK-293T cells, the “Viability at 10µM (MTT viability)” value worked out at 103.48± 0.99%. Further, the “Inhibition at 10µM (percent inhibition of trVLP replication)” value in data set [1] is given as -6.39± 9.15%.
For `OCCCCCCCCCCCCCCCCc1ccc2ccccc2n1` [2Q16OH], the inhibition at 10 µM in data set [1] was -124 ± 30.6%. In addition, the viability at 10 µM in the data set “in vitro” turned out to be 74 ± 0.75%.
Regarding `OC(Cc1ccc2ccccc2n1)c1ccccc1` (centres unmarked) [2QPOH], the inhibition at 10 µM in data set [1] is -114 ± 92.5%. Moreover, in “in vitro”, the viability at 10 µM turned out to be 88.3 ± 3.26%.
For `C(=C\c1ccc2ccccc2n1)/c1ccc2ccccc2n1` [2QQ], in data set [1], the “inhibitory activity” value is recorded as “having inhibitory activity” and the inhibition at 10 µM came out at 74.3 ± 13.4%. The viability at 10 µM in “in vitro” is 57.31 ± 0.29%.
Taken in the same sequence, the figures for `C#CC(O)CCCCCCCCCCCCC#Cc1ccc2ccccc2n1` (centres unmarked) [2Qi15] were “having inhibitory activity”, 93.3 ± 4.94% and 109.5 ± 0.25%.
As to `COc1ccc(/C=C/c2ccc3ccc(C(O)c4cccc(C#N)c4)c(OC)c3n2)cc1OC` (centres unmarked) [AS65], the inhibition at 10 µM in data set [1] was -10.2 ± 65.4%. In addition, the viability at 10 µM in “in vitro” is 77.51 ± 0.4%.
As for `CCN(CC)Cc1cc(Nc2ccnc3cc(Cl)ccc23)ccc1O` [Amodiaquine, amodiaquine dihydrochloride dihydrate, reference compound], the “inhibitory effects in pseudo-type entry assay” value in the data set on Ebola virus is “inhibitory effects”. Moreover, the “toxicity / cell viability (in words)” value with HEK-293T cells is listed as “without significant toxicity”. In addition, in data set [1], the “inhibitory activity” value is “significant reductions in luciferase activity”, the concentration for half-maximal inhibition (IC50) came to 1.45 µM and the inhibition at 10 µM amounted to 97.7 ± 10.6%. In addition, in the data set “in vitro”, the viability at 10 µM is 87.7 ± 1%. Moreover, the antiplasmodial activity entry in the data set on Plasmodium is given as “antiplasmodial activity”.
As for `CCCCCc1ccc2ccccc2n1` [BS460], in data set [1], the “Inhibition at 10µM (percent inhibition of trVLP replication)” value is on record as 4.04± 44.15%. Further, in “in vitro”, the viability at 10 µM was 107.5 ± 0.59%. For the same molecule, in the data set with Plasmodium, the antiplasmodial activity result is listed as “antiplasmodial activity”.
Consider `CCN(CC)CCCC(C)Nc1ccnc2cc(Cl)ccc12` (centres unmarked) [Chloroquine, Chloroquine diphosphate, reference compound], for which, in data set [1], the “inhibitory activity” value is given as “significant reductions in luciferase activity”, the IC50 came out at 3.95 µM and the inhibition at 10 µM was 92.2 ± 6.23%. In the data set “in vitro”, the viability at 10 µM was 106 ± 1.24%. In addition, the antiplasmodial activity result in the data set on Plasmodium is reported as “antiplasmodial activity”. Further, the “protection against Ebola virus disease” value in the data set with Ebola virus disease is reported as “protective”.
As for `Cc1ccc2ccc(Br)c(O)c2n1` [DD1], in data set [1], the “inhibitory activity” value is “having inhibitory activity” and the inhibition at 10 µM amounted to 90.5 ± 8.32%. Further, in “in vitro”, the viability at 10 µM came to 59.69 ± 0.03%.
The matching figures for `Cc1ccc2ccc(C(=O)NCc3ccc(F)cc3)c(O)c2n1` [DD2]: “having inhibitory activity”, 80.8 ± 1.38% and 77 ± 4.78%.
Consider `COc1cc(Cc2c(C)nc3ccccc3c2C(=O)O)c(Cl)c2c(C)ccnc12` [DD3], for which the inhibition at 10 µM in data set [1] is -156 ± 97.3%. The viability at 10 µM in “in vitro” came out at 105 ± 2.54%.
The matching figures for `COc1ccc(Cl)c2c(C)ccnc12` [DD4]: 49.7 ± 1.17% and 90.1 ± 1.64%.
As to `Cc1ccnc2c(O)ccc(Cl)c12` [DD5], the inhibition at 10 µM in data set [1] was -66.5 ± 17.8%. For the same molecule, in the data set “in vitro”, the viability at 10 µM was 51.4 ± 1.31%.
The matching figures for `O=C(O)c1ccc2ccc(/C=C/c3cccnc3)nc2c1O` [DD6]: -8.49 ± 18.6% and 96.7 ± 2.01%.
Taken in the same sequence, the figures for `Cc1ccc2c(C=O)cc(C=O)c(O)c2n1` [DD7] were -31.6 ± 80.9% and 90.3 ± 1.64%.
Taken in the same sequence, the figures for `CCn1cc(C(=O)O)c(=O)c2ccc(/C=C/c3ccc(O)c(O)c3)nc21` [DD8] were -74 ± 101% and 91.54 ± 0.41%.
On to `CCCCOC(=O)c1ccc2ccc(/C=C/c3cc(OC)c(O)c([N+](=O)[O-])c3)nc2c1O` [FS48], for which the inhibition at 10 µM in data set [1] is -8.41 ± 60.4%. Besides, the viability at 10 µM in “in vitro” was determined as 81.5 ± 0.97%.
`CC(=O)Nc1ccc(/C=C/c2ccc3ccc(C(=O)O)c(O)c3n2)cc1` [FZ49]: in data set [1], the inhibition at 10 µM was 21.8 ± 28.4%. For the same molecule, the viability at 10 µM in “in vitro” was 72.7 ± 1.22%.
`O=C(O)c1ccc2ccc(/C=C/c3ccc([N+](=O)[O-])cc3)nc2c1O` [FZ142]: the inhibition at 10 µM in data set [1] turned out to be 63.1 ± 2.64%. In addition, in “in vitro”, the viability at 10 µM is 102 ± 1.39%.
The matching figures for `Oc1cccc2ccc(/C=C/c3ccc4cccc(O)c4n3)nc12` [KHD288]: -8.41 ± 60.4% and 62.7 ± 0.72%.
On to `N#Cc1ccc2ccc(/C=C/c3ccc(O)c(O)c3)nc2c1O` [KHD291], for which the inhibition at 10 µM in data set [1] was -68.1 ± 58.1%. In addition, in “in vitro”, the viability at 10 µM is 71.17 ± 0.12%.
The matching figures for `O=C(c1ccc([N+](=O)[O-])cc1)c1ccc2ccc(/C=C/c3ccc(O)c(O)c3)nc2c1O` [MBN87]: -17.9 ± 51.8% and 70.5 ± 0.78%.
Regarding `O=C(c1ccc(F)c(F)c1)c1ccc2ccc(/C=C/c3ccc(O)c(O)c3)nc2c1O` [MBN91], in data set [1], the “inhibitory activity” value is on record as “having inhibitory activity” and the inhibition at 10 µM is 81.8 ± 8.8%. In addition, the viability at 10 µM in the data set “in vitro” stood at 43.5 ± 0.73%.
Turning to `CCCCCCCCC(=O)c1ccc2ccc(/C=C/c3ccc(O)c(O)c3)nc2c1O` [MBN111], in data set [1], the inhibition at 10 µM is -48.9 ± 87.8%. Further, in the data set “in vitro”, the viability at 10 µM came to 42.5 ± 4.97%.
For `Cc1ccc2ccc(C(=O)c3ccc([N+](=O)[O-])cc3)c(O)c2n1` [MBN115], the viability at 10 µM in the data set “in vitro” came to 77.1 ± 0.93%.
Regarding `O=C(c1ccccn1)c1ccc2ccc(/C=C/c3ccc(O)c(O)c3)nc2c1O` [MBN132], in data set [1], the inhibition at 10 µM was -10.4 ± 57.7%. In addition, the viability at 10 µM in the data set “in vitro” was found to be 105 ± 1.39%.
The matching figures for `Cc1ccc(C(=O)c2ccc3ccc(/C=C/c4ccc(O)c(O)c4)nc3c2O)cc1[N+](=O)[O-]` [MBN140]: -68.1 ± 58.1% and 67.6 ± 0.73%.
Turning to `O=C(NCc1ccc(O)c(O)c1)c1ccc2cccc(C(=O)O)c2n1` [MD20], the inhibition at 10 µM in data set [1] was -124 ± 93.4%. Besides, the viability at 10 µM in the data set “in vitro” was 108.3 ± 0.56%.
On to `O=[N+]([O-])c1cccc(-c2cc(Br)c(O)c3nc(/C=C/c4ccc(O)c(O)c4)ccc23)c1` [MD823], for which, in data set [1], the “inhibitory activity” value is reported as “having inhibitory activity” and the inhibition at 10 µM stood at 76.2 ± 3.16%. In addition, the viability at 10 µM in “in vitro” was determined as 58.9 ± 1.59%.
Turning to `COc1ccc(CNC(=O)Nc2ccc3ccc(C(=O)O)c(O)c3n2)cc1` [TOF401], the inhibition at 10 µM in data set [1] was -44.6 ± 11.9%. Further, the viability at 10 µM in the data set “in vitro” was found to be 106 ± 1.08%.
With `O=C(CC(=O)c1ccc2ccc(C(=O)O)c(O)c2n1)c1ccccc1` [TOF411], in data set [1], the “inhibitory activity” value is “having inhibitory activity” and the inhibition at 10 µM came to 71.04 ± 0.67%. For the same molecule, the viability at 10 µM in the data set “in vitro” is 104.9 ± 0.6%.
Consider `C(/C=C/c1ccc2ccccc2n1)=C\c1ccccc1` [XF906], for which the inhibition at 10 µM in data set [1] was determined as 0.21 ± 20.3%. Further, the viability at 10 µM in the data set “in vitro” was found to be 104 ± 1.65%.

These data come from paper PMC7268155 (F1000Research, 2020).
